# According to paper PMC12184417, “CDADC1 is a vertebrate-specific dCTP deaminase that metabolizes gemcitabine and decitabine to prevent cellular toxicity” (Proceedings of the National Academy of Sciences of the …, 2025):
# T1: DCTD (Homo sapiens, UniProt P32321)
# T1 sequence (P32321 1-178): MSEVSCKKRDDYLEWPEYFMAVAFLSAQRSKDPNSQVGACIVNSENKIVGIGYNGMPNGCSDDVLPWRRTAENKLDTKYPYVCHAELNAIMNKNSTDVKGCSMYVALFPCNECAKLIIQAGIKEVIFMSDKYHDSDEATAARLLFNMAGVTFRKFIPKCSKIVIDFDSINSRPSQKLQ
# Tests used:
# DCTD = target: T1, DCTD; assay: thin-layer chromatography of dCMP deamination; assay type: biochemical; settings: allosteric activator; substrate dCMP; 37 C, 15 min; 50 mM Tris-HCl pH 7.5
# purified protein = substrate: Nc1ccn([C@H]2C[C@H](O)[C@@H](COP(=O)(O)OP(=O)(O)OP(=O)(O)O)O2)c(=O)n1; assay: purified protein; assay type: biochemical, Homo sapiens; settings: 50 mM Tris-HCl pH 7.5, 200 ng enzyme, sigmoidal fit slightly better than Michaelis-Menten
molecule,measurement,setting,value
Nc1ccn([C@H]2C[C@H](O)[C@@H](COP(=O)(O)OP(=O)(O)OP(=O)(O)O)O2)c(=O)n1 [dCTP],thin-layer chromatography of dCMP deamination,DCTD,"DCTD converted dCMP to dUMP, with activity enhanced by the allosteric activator dCTP"
"CDADC1 (Homo sapiens) (protein, two deaminase domains CDD1 and CDD2) MKEAGQMQNLESARAGRSVSTQTGSMTGQIPRLSKVNLFTLLSLWMELFPAEAQRQKSQKNEEGKHGPLGDNEERTRVSTDKRQVKRTGLVVVKNMKIVGLHCSSEDLHAGQIALIKHGSRLKNCDLYFSRKPCSACLKMIVNAGVNRISYWPADPEISLLTEASSSEDAKLDAKAVERLKSNSRAHVCVLLQPLVCYMVQFVEETSYKCDFIQKITKTLPDANTDFYYECKQERIKEYEMLFLVSNEEMHKQILMTIGLENLCENPYFSNLRQNMKDLILLLATVASSVPNFKHFGFYRSNPEQINEIHNQSLPQEIARHCMVQARLLAYRTEDHKTGVGAVIWAEGKSRSCDGTGAMYFVGCGYNAFPVGSEYADFPHMDDKQKDREIRKFRYIIHAEQNALTFRCQEIKPEERSMIFVTKCPCDECVPLIKGAGIKQIYAGDVDVGKKKADISYMRFGELEGVSKFTWQLNPSGAYGLEQNEPERRENGVLRPVPQKEEQHQDKKLRLGIH",Km,purified protein,288.5 ± 30.6 µM
